{"source": "paper PMC5339874", "about": "“Fluorene-9-bisphenol is anti-oestrogenic and may cause adverse pregnancy outcomes in mice” (Nature Communications, 2017)", "key": {"CD-1 mice": {"test_system": "CD-1 mice", "assay": "Subchronic and reproductive toxicity tests", "details": "mouse, in vivo", "experimental": "Immature CD-1 mice (20 days old) were obtained from Experimental Animal Tech Co. of Weitonglihua (Beijing, China) and acclimatized in an experimental environment with a temperature of 22 °C±2 °C, relative humidity between 40 and 60%, and artificial lighting in a 12 h/12 h light-dark cycle. The animals were fed ad libitum with a basic diet from the Laboratory Animal Center of the Academy of Military Medical Sciences (Beijing, China), and drinking water was provided ad libitum. […] The animals were housed five to a cage until the pairing date. The treatment via oral gavage of each mouse was performed once every 3 days beginning on PND 24. The chemicals were dissolved in peanut oil to the appropriate concentrations. The volume of vehicle or chemical solutions administered was adjusted daily based on body weight measured during the dosing period according to the volume-body weight ratio of 5 ml kg^−1 bw. On PND 60, 10 females of each group were weighed and killed by cervical dislocation. The uteri, ovaries, livers, kidneys and spleens were weighed and collected for histological analysis. At the age of PND 77, males and females were paired. Each morning, the females were examined for the presence of vaginal plugs. Gestational day 1 was defined as the day on which a vaginal plug was found. In cases where pairing was unsuccessful, females were re-mated with proven males of the same group, except that females in the 1.2 mg kg^−1 TAM group were re-mated with proven males of the control group. After a 7-day mating period, the males were weighed and killed, and organs were weighed and collected for further analysis. Cauda epididymal sperm was collected from each mouse and observed under a trinocular microscope (Olympus BX53) in physiological saline. A microscopic video was recorded and analysed for sperm quality evaluation. The treatment via oral gavage was continued for the females until day 19 of pregnancy. On post-partum days 0 and 4, the weights of the dams and pups were recorded and the pups were checked for abnormalities. On post-partum day 4, the dams were weighed and killed, and their organs were weighed and collected for further analysis. The ovaries and uteri were examined for the numbers of corpora lutea and implantation sites, respectively. Finally, the non-pregnant and nulliparous females were killed for histopathological analysis. For histological examination, organs and tissues were fixed in formalin fixation, embedded in paraffin, and sectioned serially at 5 μm. Slides were stained with hematoxylin and eosin (H&E), and observed under a light microscope (Olympus BX53)."}, "rats": {"test_system": "rats", "design": "method as in PMID 8773425", "details": "oral, before implantation on day 2 of pregnancy; cited from earlier work"}, "[1]": {"test_system": "intact female BALB/c mice", "design": "method as in PMID 9359486", "details": "28 days of oral administration, intact female BALB/c mice ∼50 days old; cited from earlier work"}, "oestrogen receptor α": {"test_system": "oestrogen receptor α", "design": "method as in PMID 22927406", "details": "in the presence of E2; cited from earlier work"}, "female CD-1 mice [2]": {"test_system": "female CD-1 mice", "assay": "Improved anti-uterotrophic assay, daily oral gavage for 10 days beginning on PND 24", "format": "in vivo", "details": "daily oral gavage for 10 days", "experimental": "The animals were fed ad libitum with a basic diet from the Laboratory Animal Center of the Academy of Military Medical Sciences (Beijing, China), and drinking water was provided ad libitum. […] The volume of vehicle or chemical solutions administered was adjusted daily based on body weight measured during the dosing period according to the volume-body weight ratio of 5 ml kg^−1 bw."}, "female CD-1 mice [3]": {"test_system": "female CD-1 mice", "assay": "Exposure experiment through drinking water", "format": "in vivo", "details": "10-day exposure via drinking water", "experimental": "Mice with a maximal difference in body weight of 1 g were selected for the experiments and randomly assigned to either the treatment or control groups. […] The animals were fed ad libitum an oestrogen-free diet from Trophic Animal Feed High-tech Co., Ltd. (Nantong, China), and drinking water was provided ad libitum in glass bottles. Before the experiments, the mice were randomly assigned to five groups (n=8). Ultra-pure water was used as a control. FULV was dissolved in ultra-pure water to a concentration of 100 ng l^−1 and used as a positive control. […] Two plastic drinking bottles labelled ‘BPA-free', of different brands, were purchased and denoted Bottle A and Bottle B. The plastic bottles were filled with boiling ultra-pure water from a stainless steel electric water heater and allowed to cool down to room temperature before the animal experiment. The BHPF levels in the cooled boiled waters from Bottle A, Bottle B and the stainless steel electric water heater were determined by GC–MS. No BHPF was detected in the cooled boiled water from the stainless steel electric water heater. The cooled boiled waters from Bottle A and Bottle B were transferred to glass bottles during the experiment. The exposure experiment was performed for 10 days beginning on PND 24. After the period of exposure, the mice were weighed and killed in turns for each group, whereby in each turn only one mouse in a group was killed. Blood was collected by cardiac puncture soon after each animal was killed, and the uteri were removed, blotted and weighed by one experimenter to reduce the risk of bias in the data collection and immediately frozen in liquid nitrogen for gene expression analysis. The relative uterine weight was calculated to evaluate the anti-uterotrophic activity. […] The serum BHPF levels were analysed by GC–MS using the same method as that for human serum. The gene expressions of sprr2a and sprr2b in the uteri were determined by Q-RT-PCR."}, "rats and mice": {"test_system": "rats and mice", "design": "method as in PMID 21438738, PMID 12075117, PMID 18445619", "details": "cited from earlier work"}}, "data": [{"smiles": "CC/C(=C(\\c1ccccc1)c1ccc(OCCN(C)C)cc1)c1ccccc1", "note": "[TAM, tamoxifen, reference compound]", "values": [{"measurement": "analysis of ovary sections", "setting": "CD-1 mice", "result": "retarded follicular development and reduced the numbers of corpora lutea"}, {"measurement": "histopathological examination of ovaries", "setting": "CD-1 mice", "result": "haemorrhagic ovary cysts occurred"}, {"measurement": "histopathological examination of uteri", "setting": "CD-1 mice", "result": "serious atrophic endometria"}, {"measurement": "sperm quality", "setting": "CD-1 mice", "result": "No obvious adverse effects"}, {"measurement": "reproductive effects, high doses", "setting": "rats", "result": "prevented pregnancy in all animals"}, {"measurement": "reproductive effects, low doses", "setting": "rats", "result": "reduced the litter sizes and weights and induced embryonic absorption in some animals"}]}, {"smiles": "CC1=C(c2ccc(OC(=O)C(C)(C)C)cc2)[C@H](c2ccc(OCCN3CCCCC3)cc2)Oc2cc(OC(=O)C(C)(C)C)ccc21", "note": "[EM-800]", "values": [{"measurement": "effect on uterus", "setting": "[1]", "result": "reduce uterine weights and cause atrophy of the endometrium"}]}, {"smiles": "Cc1cc(C(C)(C)c2ccc(O)c(C)c2)ccc1O", "note": "[BPC, bisphenol C]", "values": [{"measurement": "antagonistic activity", "setting": "oestrogen receptor α", "result": "almost full antagonistic activity"}]}, {"smiles": "CN(C)CCOc1ccc([C@H]2C[C@]3(C)[C@@H](O)CC[C@H]3[C@@H]3CCc4cc(O)ccc4[C@H]32)cc1", "note": "[RU39411]", "values": [{"measurement": "reproductive effects, high doses", "setting": "rats", "result": "prevented pregnancy in all animals"}, {"measurement": "reproductive effects, low doses", "setting": "rats", "result": "reduced the litter sizes and weights and induced embryonic absorption in some animals"}]}, {"smiles": "C[C@]12CC[C@@H]3c4ccc(O)cc4C[C@@H](CCCCCCCCC[S+]([O-])CCCC(F)(F)C(F)(F)F)[C@H]3[C@@H]1CC[C@@H]2O", "note": "(stereo partly shown) [FULV, fulvestrant]", "values": [{"measurement": "relative uterine weights", "setting": "female CD-1 mice [2]", "result": "decreased in a dose-dependent manner"}, {"measurement": "relative uterine weight, % that of the control", "setting": "female CD-1 mice [3]; 100 ng l^−1 BHPF or FULV, Bottle A 124.35, Bottle B 23.81 ng l^−1 BHPF, P>0.05", "result": "77.89%±37.50"}, {"measurement": "expression of sprr2a in the uteri (Q-RT-PCR)", "setting": "female CD-1 mice [3]; no statistically significant difference (P>0.05)", "result": "decreased"}, {"measurement": "expression of sprr2b in the uteri (Q-RT-PCR)", "setting": "female CD-1 mice [3]; vs control", "result": "significantly lower"}]}, {"smiles": "CC(C)(c1ccc(O)cc1)c1ccc(O)cc1", "note": "[BPA, bisphenol A]", "values": [{"measurement": "reproductive/developmental NOAEL", "setting": "rats and mice", "result": 50, "unit": "mg kg^−1 bw day^−1"}, {"measurement": "systemic no-observed-adverse-effect level (NOAEL)", "setting": "rats and mice", "result": 5, "unit": "mg kg^−1 bw day^−1"}]}]}
